Results as given in patent publication US20110178053A1, “AZACARBOLINE DERIVATIVES, PREPARATION METHOD THEREOF AND THERAPEUTIC USE OF SAME” (SANOFI-AVENTIS, priority 2008, published 2011).

What was measured:
Assay type in all cases: biochemical
Pim-3 = biological target: T1, Pim-3 (Homo sapiens, UniProt Q86V86); assay: TR-FRET assay, Pim-3 kinase (phosphorylation of Bad Ser112); details: TR-FRET; ATP 40 μM; read-out: IC50 Pim3
T1 construct: His6-labelled recombinant full-length human Pim-1, Pim-2 or Pim-3 protein; His6; made in house
Protocol: (§1) In order to determine the inhibition of activation of Pim kinases, the compounds of the invention are tested in accordance with a routinely used in vitro TR-FRET assay (Time-Resolved Fluorescence Resonance Energy Transfer). […] For the assay, the following reagents are used:
(§2) Pim kinase—His6-labelled recombinant full-length human Pim-1, Pim-2 or Pim-3 protein (prepared according to J. Mol. Biol. (2005) 348, 183-193); Bad—His6-labelled recombinant full-length human Bad protein (prepared according to J. Mol. Biol. (2005) 348, 183-193); α-His6-APC—murine monoclonal antibody conjugated to allophycocyanin SureLight™ directed against the His6 label (Perkin-Elmer, No. AD0059H, Waltham, Mass., United States); • β-P˜Bad-Eu—murine monoclonal antibody (Cell Signaling Technology #9296B, Danvers, Mass., United States) directed against phosphoBad (Ser112) (7E11) custom-labelled by Perkin-Elmer with the reagent LANCE™ Eu-W1024.
(§3) The assay is based on Perkin-Elmer's LANCE™ technology: the Eu-labelled antibody binds to phospho-Ser112 and generates a TR-FRET signal by interaction with the APC-labelled antibody directed against His6, bound to the His6 label of Bad. The TR-FRET signal is detected using a SpectraMax M5 plate reader (Molecular Devices) with the following settings: λex=340 nm, λem1=615 nm, λem2=665 nm. The ratio of the fluorescence signal at 665 nm to the fluorescence signal at 615 nm is used as the signal reading for the IC50 (calculation is based on the 4-parameter logistic model). The assay is performed in a 384-well format; the liquid manipulations are performed using a Beckman 3000 liquid manipulations station. The test compounds are tested at 10 concentration points in duplicate; the highest compound concentration is typically equal to 30 μM. The ATP concentration is equal to 40 μM, which is equivalent to the apparent KM value.

Pim-2 = biological target: T2, Pim-2 (Homo sapiens, UniProt Q9P1W9); assay: TR-FRET assay, Pim-2 kinase (phosphorylation of Bad Ser112); details: TR-FRET; ATP 40 μM; read-out: IC50 Pim2
T2 construct: His6-labelled recombinant full-length human Pim-1, Pim-2 or Pim-3 protein; His6; made in house
T2 sequence (Q9P1W9 whole entry): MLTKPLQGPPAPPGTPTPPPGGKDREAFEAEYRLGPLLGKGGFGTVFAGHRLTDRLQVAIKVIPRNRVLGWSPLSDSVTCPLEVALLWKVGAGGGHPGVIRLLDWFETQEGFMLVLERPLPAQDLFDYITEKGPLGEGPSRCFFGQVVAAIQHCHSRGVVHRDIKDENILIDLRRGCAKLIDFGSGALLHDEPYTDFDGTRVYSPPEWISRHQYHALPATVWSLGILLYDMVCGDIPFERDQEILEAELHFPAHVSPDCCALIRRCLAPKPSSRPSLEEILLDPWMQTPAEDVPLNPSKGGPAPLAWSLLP
Protocol: as §1, §2, §3

Pim-1 = biological target: T3, Pim-1 (Homo sapiens, UniProt P11309); assay: TR-FRET assay, Pim-1 kinase (phosphorylation of Bad Ser112); details: TR-FRET; ATP 40 μM; read-out: IC50 Pim1
T3 construct: His6-labelled recombinant full-length human Pim-1, Pim-2 or Pim-3 protein; His6; made in house
T3 sequence (P11309 whole entry): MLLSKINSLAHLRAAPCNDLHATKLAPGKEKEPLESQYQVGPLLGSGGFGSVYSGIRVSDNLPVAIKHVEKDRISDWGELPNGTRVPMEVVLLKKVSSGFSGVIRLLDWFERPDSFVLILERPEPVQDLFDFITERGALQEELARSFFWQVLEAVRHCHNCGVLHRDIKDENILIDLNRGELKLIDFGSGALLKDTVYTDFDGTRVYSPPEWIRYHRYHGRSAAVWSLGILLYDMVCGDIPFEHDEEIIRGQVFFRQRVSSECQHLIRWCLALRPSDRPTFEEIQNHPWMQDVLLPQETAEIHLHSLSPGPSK
Protocol: as §1, §2, §3

Compound	IC50 (Pim-3)	IC50 (Pim-2)	IC50 (Pim-1)
c1cncc(-c2cc3c(cn2)[nH]c2ncc(N4CCNCC4)cc23)c1 [Example 108, 3-(piperazin-1-yl)-6-(pyrid-3-yl)-9H-pyrrolo[2,3-b:5,4-c′]-dipyridine]	1 to 100 nM	> 5000 nM	1 to 100 nM
O=S(=O)(Nc1ccc(-c2c(F)cnc3[nH]c4cnc(-c5cccnc5)cc4c23)cc1)C1CC1 [Example 46, N-{4-[3-fluoro-6-(pyrid-3-yl)-9H-pyrrolo[2,3-b:5,4-c′]dipyrid-4-yl]phenyl}cyclo-propanesulfonamide]	1 to 100 nM	100 to 1000 nM	1 to 100 nM
Fc1cnc2[nH]c3cnc(-c4cccnc4)cc3c2c1N1CCC(N2CCCC2)CC1 [Example 85, 3-fluoro-6-(pyrid-3-yl)-4-[4-(pyrrolidin-1-yl)piperid-1-yl]-9H-pyrrolo[2,3-b:5,4-c′]-dipyridine]	100 to 1000 nM	1000 to 5000 nM	1 to 100 nM
CC(=O)N1CCN(c2cccc(-c3cnc4[nH]c5cnc(-c6cccnc6)cc5c4c3)c2)CC1 [Example 136, 1-(4-{3-[6-(pyrid-3-yl)-9H-pyrrolo[2,3-b:5,4-c′]dipyrid-3-yl]phenyl}piperazin-1-yl)-ethanone]	1 to 100 nM	> 5000 nM	1 to 100 nM
Fc1cc(F)cc(-c2c(F)cnc3[nH]c4cnc(-c5cccnc5)cc4c23)c1 [Example 25, 4-(3,5-difluorophenyl)-3-fluoro-6-(pyrid-3-yl)-9H-pyrrolo [2,3-b:5,4-c′]-dipyridine]	100 to 1000 nM	> 5000 nM	1 to 100 nM
COc1c(F)cnc2[nH]c3cnc(-c4cccnc4)cc3c12 [Example 105, 3-fluoro-4-methoxy-6-(pyrid-3-yl)-9H-pyrrolo[2,3-b:5,4-c′]dipyridine]	100 to 1000 nM	> 5000 nM	1 to 100 nM
Cc1csc(-c2c(F)cnc3[nH]c4cnc(-c5cccnc5)cc4c23)c1 [Example 54, 3-fluoro-4-(4-methylthiophen-2-yl)-6-(pyrid-3-yl)-9H-pyrrolo[2,3-b:5,4-c′]dipyridine]	100 to 1000 nM	> 5000 nM	1 to 100 nM
CN1CCCN(c2c(F)cnc3[nH]c4cnc(-c5cccnc5)cc4c23)CC1 [Example 80, 3-fluoro-4-(4-methyl-1,4-diazepan-1-yl)-6-(pyrid-3-yl)-9H-pyrrolo[2,3-b:5,4-c′]dipyridine]	100 to 1000 nM	> 5000 nM	100 to 1000 nM
CCN(CC)CCCn1cc(-c2cc3c(cn2)[nH]c2ncc(OC)cc23)cn1 [Example 166, N,N-diethyl-3-[4-(3-methoxy-9H-pyrrolo[2,3-b:5,4-c′]dipyrid-6-yl)-1H-pyrazol-1-yl]-propan-1-amine]	1000 to 5000 nM	> 5000 nM	100 to 1000 nM
Fc1ccc(-c2cc3c(cn2)[nH]c2ncccc23)cn1 [Example 41, 6-(6-fluoropyrid-3-yl)-9H-pyrrolo[2,3-b:5,4-c′]dipyridine]	> 5000 nM	> 5000 nM	1000 to 5000 nM
c1cncc(-c2cc3c(cn2)[nH]c2ncc(-c4ccc(N5CCNCC5)nc4)cc23)c1 [Example 158, 3-[6-(piperazin-1-yl)pyrid-3-yl]-6-(pyrid-3-yl)-9H-pyrrolo[2,3-b:5,4-c′]dipyridine]	1 to 100 nM	100 to 1000 nM	1 to 100 nM
CCOC(=O)/C=C/c1c(F)cnc2[nH]c3cnc(-c4cccnc4)cc3c12 [Example 29, ethyl (2E)-3-[3-fluoro-6-(pyrid-3-yl)-9H-pyrrolo-[2,3-b:5,4-c′]dipyrid-4-yl]prop-2-enoate]	100 to 1000 nM	> 5000 nM	100 to 1000 nM
FC(F)(F)COc1cnc2[nH]c3cnc(-c4cccnc4)cc3c2c1 [Example 111, 6-(pyrid-3-yl)-3-(2,2,2-trifluoroethoxy)-9H-pyrrolo[2,3-b:5,4-c′]dipyridine]	100 to 1000 nM	1000 to 5000 nM	1 to 100 nM
Oc1ccc(-c2cnc3[nH]c4cnc(-c5cccnc5)cc4c3c2)cc1 [Example 151, 4-[6-(pyrid-3-yl)-9H-pyrrolo[2,3-b:5,4-c′]dipyrid-3-yl]phenol]	1 to 100 nM	100 to 1000 nM	1 to 100 nM
C=CCn1cc(-c2cc3c(cn2)[nH]c2nccc(-c4ccc(C(=O)OC)cc4)c23)cn1 [Example 170, methyl 4-{6-[1-(prop-2-en-1-yl)-1H-pyrazol-4-yl]-9H-pyrrolo[2,3-b:5,4-c′]dipyrid-4-yl}benzoate]	100 to 1000 nM	100 to 1000 nM	1 to 100 nM
Nc1cnc2[nH]c3cnc(-c4cccnc4)cc3c2c1 [Example 109, 6-(pyrid-3-yl)-9H-pyrrolo[2,3-b:5,4-c′]dipyrid-3-amine]	100 to 1000 nM	> 5000 nM	1 to 100 nM
Fc1cnc2[nH]c3cnc(-c4cccnc4)cc3c2c1N1CCC(N2CCOCC2)CC1 [Example 78, 3-fluoro-4-[4-(morpholin-4-yl)piperid-1-yl]-6-(pyrid-3-yl)-9H-pyrrolo[2,3-b:5,4-c′]-dipyridine]	100 to 1000 nM	> 5000 nM	1 to 100 nM
Cn1nccc1-c1c(F)cnc2[nH]c3cnc(-c4cccnc4)cc3c12 [Example 67, 3-fluoro-4-(1-methyl-1H-pyrazol-5-yl)-6-(pyrid-3-yl)-9H-pyrrolo[2,3-b:5,4-c']-dipyridine]	1000 to 5000 nM	> 5000 nM	1000 to 5000 nM
c1cncc(-c2cc3c(cn2)[nH]c2ncc(-c4ccc(OCCCN5CCCCC5)cc4)cc23)c1 [Example 147, 3-{4-[3-(piperid-1-yl)propoxy]phenyl}-6-(pyrid-3-yl)-9H-pyrrolo[2,3-b:5,4-c′]-dipyridine]	1 to 100 nM	100 to 1000 nM	1 to 100 nM
CSc1cncc(-c2cc3c(cn2)[nH]c2ncc(F)cc23)c1 [Example 161, 3-fluoro-6-[5-(methylsulfanyl)pyrid-3-yl]-9H-pyrrolo[2,3-b:5,4-c′]dipyridine]	100 to 1000 nM	> 5000 nM	100 to 1000 nM
CS(=O)(=O)N1CCN(CCCOc2ccc(-c3cnc4[nH]c5cnc(-c6cccnc6)cc5c4c3)cc2)CC1 [Example 152, 3-(4-{3-[4-(methylsulfonyl)piperazin-1-yl]propoxy}phenyl)-6-(pyrid-3-yl)-9H-pyrrolo-[2,3-b:5,4-c′]dipyridine]	1 to 100 nM	100 to 1000 nM	1 to 100 nM
CC(C)Cn1cc(-c2cnc3[nH]c4cnc(-c5cccnc5)cc4c3c2)cn1 [Example 117, 3-[1-(2-methyl-propyl)-1H-pyrazol-4-yl]-6-(pyrid-3-yl)-9H-pyrrolo[2,3-b:5,4-c′]dipyridine]	1 to 100 nM	1000 to 5000 nM	1 to 100 nM
Fc1cnc2[nH]c3cnc(-c4cccnc4)cc3c2c1Cl [Example 37, 4-chloro-3-fluoro-6-(pyrid-3-yl)-9H-pyrrolo[2,3-b:5,4-c′]dipyridine]	1000 to 5000 nM	> 5000 nM	100 to 1000 nM
COc1cnc2[nH]c3cnc(-c4cnn(CCC5CCCCN5C)c4)cc3c2c1 (stereo not drawn) [Example 169, 3-methoxy-6-{1-[2-(1-methylpiperid-2-yl)ethyl]-1H-pyrazol-4-yl}-9H-pyrrolo[2,3-b:5,4-c′]dipyridine]	100 to 1000 nM	> 5000 nM	100 to 1000 nM
CC(C)(O)c1cnc2[nH]c3cnc(-c4cccnc4)cc3c2c1 [Example 16, 2-[6-(pyrid-3-yl)-9H-pyrrolo[2,3-b:5,4-c′]dipyrid-3-yl]propan-2-ol]	100 to 1000 nM	1000 to 5000 nM	1000 to 5000 nM
